Results published in patent US10709706B2, “Nuclear transport modulators and uses thereof” (Karyopharm Therapeutics Inc., priority 2015, dated 2020).

Legend:
Assay type in all cases: cell-based
[1] = system: MM1S cells; assay: MTT cell proliferation assay, MM1S cells; conditions: Homo sapiens, MM1.S, MM1S multiple myeloma cells, approximately 64-72 hours, 1 nM to 30 μM
Outline: (§1)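 Cells (5,000-10,000/well) attached overnight, then received eight concentrations from 1 nM to 30 μM. MTT was added for ~4 h, and solubilized formazan was read at 490 nm. Percent inhibition is relative to the negative control, mostly in duplicate, as mean±SE; 3T3 are Swiss mouse embryo fibroblasts, MM1S human myeloma.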

[2] = system: Z138 cells; assay: MTT cell proliferation assay, Z138 cells; conditions: Homo sapiens, Z-138, approximately 64-72 hours, 1 nM to 30 μM
[3] = system: 3T3 cells; assay: MTT cell proliferation assay, 3T3 cells; conditions: Mus musculus, NIH3T3, 3T3 fibroblast cells, approximately 64-72 hours, 1 nM to 30 μM
Outline: as §1

Row | SMILES | IC50 [1] | IC50 [2] | IC50 [3]
1 | CN1CCN(S(=O)(=O)c2cccc(/C(=C\c3ccnc(-c4cc(C(F)(F)F)cc(C(F)(F)F)c4)n3)C(N)=O)c2)CC1 [Compound 146, (E)-3-(2-(3,5-bis(trifluoromethyl)phenyl)pyrimidin-4-yl)-2-(3-((4-methylpiperazin-1-yl)sulfonyl)phenyl)acrylamide] | > 30 µM | > 30 µM | > 30 µM
2 | NC(=O)/C(=C/c1ccnc(-c2cc(C(F)(F)F)cc(C(F)(F)F)c2)n1)c1ccc(F)cc1 [Compound 163, (E)-3-(2-(3,5-bis(trifluoromethyl)phenyl)pyrimidin-4-yl)-2-(4-fluorophenyl)acrylamide] | > 30 µM | > 30 µM | > 30 µM
3 | CS(=O)(=O)Nc1cccc(/C(=C\c2ccnc(-c3cc(C(F)(F)F)cc(C(F)(F)F)c3)n2)C(N)=O)c1 [Compound 144, (E)-3-(2-(3,5-bis(trifluoromethyl)phenyl)pyrimidin-4-yl)-2-(3-(methylsulfonamido)phenyl)acrylamide] | > 30 µM | > 30 µM | > 30 µM
4 | NC(=O)/C(=C/c1ccnc(-c2cc(C(F)(F)F)cc(C(F)(F)F)c2)n1)c1cccc(Cl)c1Cl [Compound 141, (E)-3-(2-(3,5-bis(trifluoromethyl)phenyl)pyrimidin-4-yl)-2-(2,3-dichlorophenyl)acrylamide] | > 30 µM | > 30 µM | > 30 µM

The next lines start with results.

Row | IC50 [1] | SMILES | IC50 [2] | IC50 [3]
5 | > 30 µM | NC(=O)/C(=C/c1ccnc(-c2cc(C(F)(F)F)cc(C(F)(F)F)c2)n1)c1ccc(F)cc1F [Compound 132, (E)-3-(2-(3,5-bis(trifluoromethyl)phenyl)pyrimidin-4-yl)-2-(2,4-difluorophenyl)acrylamide] | > 30 µM | > 30 µM
6 | > 30 µM | NC(=O)/C(=C/c1ccnc(-c2cc(C(F)(F)F)cc(C(F)(F)F)c2)n1)c1csc2ccccc12 [Compound 123, (E)-2-(benzo[b]thiophen-3-yl)-3-(2-(3,5-bis(trifluoromethyl)phenyl)pyrimidin-4-yl)acrylamide] | > 30 µM | > 30 µM
7 | > 30 µM | NC(=O)/C(=C/c1cncc(-c2cc(C(F)(F)F)cc(C(F)(F)F)c2)n1)c1cncnc1 [Compound 114, (E)-3-(6-(3,5-bis(trifluoromethyl)phenyl)pyrazin-2-yl)-2-(pyrimidin-5-yl)acrylamide] | > 30 µM | > 30 µM
8 | > 30 µM | NC(=O)/C(=C\c1nccc(-c2cc(C(F)(F)F)cc(C(F)(F)F)c2)n1)c1cncnc1 [Compound 110, (Z)-3-(4-(3,5-bis(trifluoromethyl)phenyl)pyrimidin-2-yl)-2-(pyrimidin-5-yl)acrylamide] | > 30 µM | > 30 µM
